Literature values, collected in patent US20100256082A1, “Metallo-hydrolase inhibitors using metal binding moietes in combination with targeting moieties” (Viamet Pharmaceuticals, Inc., priority 2006, published 2010).

Assays:
RDP = settings: read-out: 50% inhibitory concentration; reversible, competitive inhibitor of RDP
PDE3A = PDE3A (Homo sapiens, UniProt Q14432, T844A); settings: T844 to Ala mutant versus PDE3A
Chain of PDE3A (Q14432 whole entry T844A): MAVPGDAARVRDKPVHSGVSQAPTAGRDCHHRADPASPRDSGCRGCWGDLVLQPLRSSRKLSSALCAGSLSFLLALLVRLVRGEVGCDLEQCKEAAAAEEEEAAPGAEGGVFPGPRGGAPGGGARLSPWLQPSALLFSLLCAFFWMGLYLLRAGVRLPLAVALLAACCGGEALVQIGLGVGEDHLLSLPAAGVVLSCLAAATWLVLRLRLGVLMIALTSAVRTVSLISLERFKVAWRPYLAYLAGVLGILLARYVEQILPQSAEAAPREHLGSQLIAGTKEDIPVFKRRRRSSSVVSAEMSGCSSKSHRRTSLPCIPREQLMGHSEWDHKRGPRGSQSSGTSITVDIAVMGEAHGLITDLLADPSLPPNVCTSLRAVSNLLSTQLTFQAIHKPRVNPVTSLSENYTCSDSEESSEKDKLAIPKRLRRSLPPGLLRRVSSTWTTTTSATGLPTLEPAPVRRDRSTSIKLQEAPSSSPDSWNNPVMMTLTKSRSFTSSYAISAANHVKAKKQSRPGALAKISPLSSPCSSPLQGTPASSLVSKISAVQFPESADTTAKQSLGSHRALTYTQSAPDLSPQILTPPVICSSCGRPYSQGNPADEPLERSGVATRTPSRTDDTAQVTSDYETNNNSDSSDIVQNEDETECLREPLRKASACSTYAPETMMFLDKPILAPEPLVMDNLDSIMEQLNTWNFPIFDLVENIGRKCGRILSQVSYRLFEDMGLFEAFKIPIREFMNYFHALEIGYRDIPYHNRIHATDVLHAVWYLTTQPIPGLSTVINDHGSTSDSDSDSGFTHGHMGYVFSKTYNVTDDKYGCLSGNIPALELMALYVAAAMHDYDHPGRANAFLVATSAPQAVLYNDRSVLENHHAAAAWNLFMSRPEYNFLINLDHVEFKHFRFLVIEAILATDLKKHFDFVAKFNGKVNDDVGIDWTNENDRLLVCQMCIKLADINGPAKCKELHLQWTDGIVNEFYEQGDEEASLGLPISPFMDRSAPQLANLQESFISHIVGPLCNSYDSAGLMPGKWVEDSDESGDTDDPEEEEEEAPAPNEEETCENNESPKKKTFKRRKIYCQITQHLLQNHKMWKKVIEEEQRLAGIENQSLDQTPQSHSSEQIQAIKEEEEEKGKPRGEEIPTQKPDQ

Row | SMILES | effect of mutation of T844 to Ala in PDE3A on the K (PDE3A) | also measured
1 | CC1(C)C[C@@H]1C(=O)N/C(=C\CCCCSC[C@H](N)C(=O)O)C(=O)O [Cilastatin] |  | IC50 (RDP): 50.1 mM
2 | Nc1nc2c(ncn2[C@@H]2O[C@@H]3COP(=O)(O)O[C@H]3[C@H]2O)c(=O)[nH]1 [cGMP] | no effect | 
3 | O=C1CCc2cc(OCCCCc3nnnn3C3CCCCC3)ccc2N1 [cilostazol] |  | increase in Ki on mutation of T844 to Ala in PDE3A (PDE3A): 25 fold
4 | Cc1[nH]c(=O)c(C#N)cc1-c1ccncc1 [milrinone] | no effect | 
